Literature values, collected in patent publication US20250041478A1, “FIBROUS POLYPEPTIDE-BASED BIOSCAFFOLD DELIVERY OF THERAPEUTICS TO NEURAL CELLS” (priority 2023, published 2025).
Structures can show the parent of a compound that is named as a salt.

Conditions: in vivo

Structure (SMILES): CN(C)c1ccc(O)c2c1C[C@H]1C[C@H]3[C@H](N(C)C)C(O)=C(C(N)=O)C(=O)[C@@]3(O)C(O)=C1C2=O [MH, minocycline hydrochloride]
- plasma half-life: 11 to 23 h
